The text below walks through data of US20250145633A1, “SUBSTITUTED FURANOPYRIMIDINE COMPOUNDS AS PDE1 INHIBITORS” (Dart NeuroScience, LLC, priority 2017, published 2025).

This assay concerns the target human PDE1B enzyme (Homo sapiens (Human), UniProt Q01064). Put plainly: IMAP TR-FRET PDE1B enzymatic assay. Format: biochemical. Conditions: negative log of half-maximal molar inhibitory concentration, 200 nM FAM-cAMP, values given as bins; for IC50: read-out: PDE1b (pIC50) (converted). Here is the method: PDE1B inhibition was determined by an IMAP TR-FRET assay. The IMAP TR-FRET PDE assay was optimized for concentration of enzyme, Calmodulin, cAMP or cGMP substrate, DMSO tolerance, and incubation time.
Into each well of a solid white 1536 well plate (Corning) was dispensed 250 pg full-length recombinant NH-terminal GST tagged human PDE1B enzyme (BPS Bioscience Cat #60011, San Diego, CA) in 2.5 μL IMAP BSA reaction buffer (Molecular Devices, Sunnyvale, CA) containing 10 U/ml Calmodulin and 2.5 mM CaCl2) (Sigma Aldrich.) After a brief centrifugation, 30 nL of compound was added by transfer from 1 mM stock in DMSO using a Kalypsys 1536 Pintool. Plates were incubated for 5 minutes at room temperature before dispensing 1.5 μL of 533 nM 5-carboxy fluorescein (FAM)-labeled cAMP (Molecular Devices, Sunnyvale, CA) for a final concentration of 200 nM. After a brief centrifugation, the plates were incubated for 30 minutes at room temperature. The assay was terminated by adding 5 μL IMAP binding reagent/Tb complex (Molecular Devices, Sunnyvale, CA) to each well.
Plates were incubated for 1 hour at room temperature and were read on a Viewlux multimode plate reader (Perkin Elmer). The instrument was set to excite using the DUG11 filter and measure using 490/10 nm and 520/10 nm filters. Ratios of acceptor and donor were then calculated.
For IC50 calculations, the values of % efficacy versus a series of compound concentrations were then plotted using non-linear regression analysis of sigmoidal dose-response curves generated with the equation Y=[B+(T−B)]/[1+10((Log EC50−X)×Hill Slope)], where Y=percent activity, B=minimum percent efficacy, T=maximum percent efficacy, X=logarithm of compound and Hill Slope=slope factor or Hill coefficient. The IC50 value was determined by the concentration causing a half-maximal percent efficacy.

Structures can show the parent of a compound that is named as a salt. Bounds are passed on as bounds.

In the case of `Cc1oc2ncnc(NC3(C)CC3)c2c1C(=O)N1CC[C@@H]2CCCC[C@H]2C1` (stereo in doubt) [Example 271, 5-[(4aS,8aR)-Decahydroisoquinoline-2-carbonyl]-6-methyl-N-(1-methylcyclopropyl)furo[2,3-d]pyrimidin-4-amine], the IC50 is 10 to 100 nM.

For `COc1ccc(C(C)NC(=O)c2c(C)oc3ncnc(NC4(C)CC4)c23)cc1` (stereo in doubt) [Example 480, N-[(1S)-1-(4-Methoxyphenyl)ethyl]-6-methyl-4-[(1-methylcyclopropyl)amino]furo[2,3-d]pyrimidine-5-carboxamide], the IC50 was 10 to 100 nM.

Consider `COc1ccccc1C(C)NC(=O)c1c(C)oc2ncnc(NC3(C)CC3)c12` (stereo in doubt) [Example 482, N-[(1S)-1-(2-Methoxyphenyl)ethyl]-6-methyl-4-[(1-methylcyclopropyl)amino]furo[2,3-d]pyrimidine-5-carboxamide], for which the IC50 was 10 to 100 nM.

As for `Cc1oc2ncnc(NC3(C)CC3)c2c1C(=O)NC(C)c1ccc(F)cc1` (stereo in doubt) [Example 484, N-[(1R)-1-(4-Fluorophenyl)ethyl]-6-methyl-4-[(1-methylcyclopropyl)amino]furo[2,3-d]pyrimidine-5-carboxamide], the IC50 is 10 to 100 nM.

Take `Cc1oc2ncnc(NC3(C)CC3)c2c1C(=O)NC(C)c1ncc(F)cn1` (stereo in doubt) [Example 518, N-[(1S)-1-(5-Fluoropyrimidin-2-yl)ethyl]-6-methyl-4-[(1-methylcyclopropyl)amino]furo[2,3-d]pyrimidine-5-carboxamide]: the IC50 was 100 to 1000 nM.

For the compound `COc1ccc(C(C)NC(=O)c2c(C)oc3ncnc(NC4(C)CC4)c23)cc1OC` (stereo in doubt) [Example 556, N-[(1R)-1-(3,4-Dimethoxyphenyl)ethyl]-6-methyl-4-[(1-methylcyclopropyl)amino]furo[2,3-d]pyrimidine-5-carboxamide], the “PDE1b (pIC50)” value is over 8.

Consider `COc1ccc(C(C)NC(=O)c2c(C)oc3ncnc(NC4(C)CC4)c23)cc1` (stereo in doubt) [Example 560, N-[(1R)-1-(4-Methoxyphenyl)ethyl]-6-methyl-4-[(1-methylcyclopropyl)amino]furo[2,3-d]pyrimidine-5-carboxamide], for which the “PDE1b (pIC50)” value is over 8.

As to `Cc1oc2ncnc(NC3(C)CC3)c2c1C(=O)NC(C)c1ncc(F)cn1` (stereo in doubt) [Example 615, N-[(1R)-1-(5-Fluoropyrimidin-2-yl)ethyl]-6-methyl-4-[(1-methylcyclopropyl)amino]furo[2,3-d]pyrimidine-5-carboxamide], the IC50 was 10 to 100 nM.

For `Cc1oc2ncnc(NC3(C)CC3)c2c1C(=O)N1CCN(c2ccccc2)CC1` [Example 1, (6-Methyl-4-((1-methylcyclopropyl)amino)furo[2,3-d]pyrimidin-5-yl)(4-phenylpiperazin-1-yl)methanone], the “PDE1b (pIC50)” value was over 8.

Turning to `Cc1oc2ncnc(NC3(C)CC3)c2c1C(=O)N1CCc2nc(C3CC3)ncc2C1` [Example 2, (2-Cyclopropyl-7,8-dihydropyrido[4,3-d]pyrimidin-6(5H)-yl)(6-methyl-4-((1-methylcyclopropyl)amino)furo[2,3-d]pyrimidin-5-yl)methanone], the IC50 is 10 to 100 nM.

Consider `Cc1oc2ncnc(NC3(C)CC3)c2c1C(=O)NC1(CF)CC1` [Example 3, N-(1-(fluoromethyl)cyclopropyl)-6-methyl-4-((1-methylcyclopropyl)amino)furo[2,3-d]pyrimidine-5-carboxamide], for which the IC50 is 10 to 100 nM.

In the case of `COc1ncnc2c1CCN(C(=O)c1c(C)oc3ncnc(NC4(C)CC4)c13)C2` [Example 4, (4-Methoxy-5,8-dihydropyrido[3,4-d]pyrimidin-7(6H)-yl)(6-methyl-4-((1-methylcyclopropyl)amino)furo[2,3-d]pyrimidin-5-yl)methanone], the IC50 was 10 to 100 nM.

As for `Cc1oc2ncnc(NC3(C)CC3)c2c1C(=O)N1CCc2c(F)ncnc2C1` [Example 5, (4-Fluoro-5,8-dihydropyrido[3,4-d]pyrimidin-7(6H)-yl)(6-methyl-4-((1-methylcyclopropyl)amino)furo[2,3-d]pyrimidin-5-yl)methanone], the IC50 was 10 to 100 nM.

As to `Cc1oc2ncnc(NC3(C)CC3)c2c1C(=O)N1CCc2c(Cl)ncnc2C1` [Example 6, 5-{4-chloro-5H,6H,7H,8H-pyrido[3,4-d]pyrimidine-7-carbonyl}-6-methyl-N-(1-methylcyclopropyl)furo[2,3-d]pyrimidin-4-amine], the IC50 is 10 to 100 nM.

Consider `Cc1oc2ncnc(NC3(C)CC3)c2c1C(=O)N1CCc2c(ncnc2NCCF)C1` [Example 7, 5-{4-[(2-Fluoroethyl)amino]-5H,6H,7H,8H-pyrido[3,4-d]pyrimidine-7-carbonyl}-6-methyl-N-(1-methylcyclopropyl)furo[2,3-d]pyrimidin-4-amine trifluoroacetate], for which the IC50 is 10 to 100 nM.

As to `Cc1oc2ncnc(NC3(C)CC3)c2c1C(=O)NCc1cnc(Cl)cn1` [Example 8, N-((5-Chloropyrazin-2-yl)methyl)-6-methyl-4-((1-methylcyclopropyl)amino)furo[2,3-d]pyrimidine-5-carboxamide], the IC50 was 10 to 100 nM.

Take `Cc1oc2ncnc(NC3(C)CC3)c2c1C(=O)NCc1cnc(F)cn1` [Example 9, N-((5-Fluoropyrazin-2-yl)methyl)-6-methyl-4-((1-methylcyclopropyl)amino)furo[2,3-d]pyrimidine-5-carboxamide]: the IC50 was 10 to 100 nM.

In the case of `Cc1oc2ncnc(NC3(C)CC3)c2c1C(=O)NCc1ccc(O)cn1` [Example 10, N-[(5-Hydroxypyridin-2-yl)methyl]-6-methyl-4-[(1-methylcyclopropyl)amino]furo[2,3-d]pyrimidin-5-carboxamide], the IC50 is 10 to 100 nM.

For the compound `Cc1oc2ncnc(NC3(C)CC3)c2c1C(=O)NCc1ccc(OCF)cn1` [Example 11, N-((5-(Fluoromethoxy)pyridin-2-yl)methyl)-6-methyl-4-((1-methylcyclopropyl)amino)furo[2,3-d]pyrimidin-5-carboxamide], the “PDE1b (pIC50)” value is recorded as over 8.

Take `Cc1oc2ncnc(NC3(C)CC3)c2c1C(=O)N1CC=C(c2cnc(C#N)c(F)c2)CC1` [Example 12, 3-Fluoro-5-(1-{6-methyl-4-[(1-methylcyclopropyl)amino]furo[2,3-d]pyrimidine-5-carbonyl}-1,2,3,6-tetrahydropyridin-4-yl)pyridine-2-carbonitrile]: the “PDE1b (pIC50)” value is over 8.

Take `COc1ncc(C2=CCN(C(=O)c3c(C)oc4ncnc(NC5(C)CC5)c34)CC2)cc1F` [Example 13, 5-[4-(5-Fluoro-6-methoxypyridin-3-yl)-1,2,3,6-tetrahydropyridine-1-carbonyl]-6-methyl-N-(1-methylcyclopropyl)furo[2,3-d]pyrimidin-4-amine]: the “PDE1b (pIC50)” value is over 8.

`COc1ncc(C2CCN(C(=O)c3c(C)oc4ncnc(NC5(C)CC5)c34)CC2)cc1F` [Example 14, 5-[4-(5-Fluoro-6-methoxypyridin-3-yl)piperidine-1-carbonyl]-6-methyl-N-(1-methylcyclopropyl)furo[2,3-d]pyrimidin-4-amine]: the “PDE1b (pIC50)” value is given as over 8.

Take `Cc1oc2ncnc(NC3(C)CC3)c2c1C(=O)N1CC=C(c2ncc(F)cn2)CC1` [Example 15, 5-[4-(5-Fluoropyrimidin-2-yl)-1,2,3,6-tetrahydropyridine-1-carbonyl]-6-methyl-N-(1-methylcyclopropyl)furo[2,3-d]pyrimidin-4-amine]: the IC50 was 10 to 100 nM.

In the case of `Cc1oc2ncnc(NC3(C)CC3)c2c1C(=O)N1CCc2c(ncn(CF)c2=O)C1` [Example 16, 3-(Fluoromethyl)-7-{6-methyl-4-[(1-methylcyclopropyl)amino]furo[2,3-d]pyrimidine-5-carbonyl}-3H,4H,5H,6H,7H,8H-pyrido[3,4-d]pyrimidin-4-one], the IC50 was 10 to 100 nM.

`Cc1oc2ncnc(NC3(C)CC3)c2c1C(=O)N1CCc2c(ncnc2OCF)C1` [Example 17, 5-[4-(fluoromethoxy)-5H,6H,7H,8H-pyrido[3,4-d]pyrimidine-7-carbonyl]-6-methyl-N-(1-methylcyclopropyl)furo[2,3-d]pyrimidin-4-amine]: the IC50 is 10 to 100 nM.

As for `Cc1oc2ncnc(NC3(C)CC3)c2c1C(=O)N1CCc2c(ncnc2N2CC[C@@H](F)C2)C1` [Example 18, 5-{4-[(3R)-3-Fluoropyrrolidin-1-yl]-5H,6H,7H,8H-pyrido[3,4-d]pyrimidine-7-carbonyl}-6-methyl-N-(1-methylcyclopropyl)furo[2,3-d]pyrimidin-4-amine], the IC50 is 10 to 100 nM.

Regarding `Cc1oc2ncnc(NC3(C)CC3)c2c1C(=O)N1CCc2c(O)ccnc2C1` [Example 19, 7-{6-methyl-4-[(1-methylcyclopropyl)amino]furo[2,3-d]pyrimidine-5-carbonyl}-5,6,7,8-tetrahydro-1,7-naphthyridin-4-ol], the IC50 was 100 to 1000 nM.
